Measured values: patent US20250051277A1, “DELIVERY OF THERAPEUTIC ALKALOID COMPOUNDS” (Sensorium Therapeutics, Inc., priority 2021, published 2025)
Read-outs that look alike come from different tables or passages of the source.

Legend:
[1] = 10 μM
[2] = 10 μM; remark: listed apart in the source
[3] = assay type: physicochemical; conditions: DI water, 25° C., 0.5 mM
[4] = assay type: physicochemical; conditions: SGF with pepsin, pH 1.5, 37° C.; for Condition 1 Conversion (%): 0.5 mM; for Condition 1 Conversion (%), first value of pair x/y: first of two values; for Condition 1 Conversion (%), second value of pair x/y: second of two values

Row | Structure (SMILES) | Condition 2 Conversion (%) ([3]; time 1 min) | Condition 2 Conversion (%) ([3]; time 5 min) | Condition 2 Conversion (%) ([3]; time 30 min) | Condition 2 Conversion (%) ([3]; time 1 h) | Condition 2 Conversion (%) ([3]; time 4 h) | Condition 2 Conversion (%) ([3]; time 24 h) | Condition 1 Conversion (%) ([4]; time 1 min) | Condition 1 Conversion (%) ([4]; time 5 min) | Condition 1 Conversion (%) ([4]; time 30 min) | Condition 1 Conversion (%) ([4]; time 1 h) | Condition 1 Conversion (%) ([4]; time 4 h) | Condition 1 Conversion (%) ([4]; time 24 h) | also measured
1 | CCC(C)(C)C(=O)OC1=C[C@@H]2N(C)CC[C@]2(c2ccc(OC)c(OC)c2)CC1 [Compound 428, (3aS,7aS)-3a-(3,4-dimethoxyphenyl)-1-methyl-2,3,3a,4,5,7a-hexahydro-1H-indol-6-yl2,2-dimethylbutanoate] | – | – | – | – | – | – | – | – | – | – | – | – | Prodrug (%) remaining, Rat Plasma ([1]; 0 h): 100.0%; Prodrug (%) remaining, Rat Plasma ([1]; 10 min): 90.3%; Prodrug (%) remaining, Rat Plasma ([1]; 0.5 h): 69.9%; Prodrug (%) remaining, Rat Plasma ([1]; 1 h): 41.7%; Prodrug (%) remaining, Rat Plasma ([1]; 2 h): 18.1%; Prodrug (%) remaining, Rat Plasma ([1]; 4 h): 3.9%; Prodrug (%) remaining, Human Plasma ([2]; 0 h): 100.0%; Prodrug (%) remaining, Human Plasma ([2]; 10 min): 82.9%; Prodrug (%) remaining, Human Plasma ([2]; 0.5 h): 74.5%; Prodrug (%) remaining, Human Plasma ([2]; 1 h): 69.1%; Prodrug (%) remaining, Human Plasma ([2]; 2 h): 56.8%; Prodrug (%) remaining, Human Plasma ([2]; 4 h): 46.0%
2 | COc1ccc([C@@]23CC/C(=N\NC(=O)Nc4ccc(N5CCN(C)CC5)cc4)C[C@@H]2N(C)CC3)cc1OC [Compound 257, 1-[[(3aS,7aS)-3a-(3,4-dimethoxyphenyl)-1-methyl-2,3,4,5,7,7a-hexahydroindol-6-ylidene]amino]-3-[4-(4-methylpiperazin-1-yl)phenyl]urea] | 0% | 0% | 5% | 8% | 30% | 95% | 4.6% | 54.1% | 100% | 100% | 100% | 100% | –
3 | COc1ccc([C@@]23CCC(=NNC(C)=O)C[C@@H]2N(C)CC3)cc1OC [Compound 222, N-[[(3aS,7aS)-3a-(3,4-dimethoxyphenyl)-1-methyl-2,3,4,5,7,7a-hexahydroindol-6-ylidene]amino]acetamide] | 10% | 20% | 50% | 100% | 100% | 100% | 100% | 100% | 100% | 100% | 100% | 100% | –
4 | COc1ccc(C23CCC(=NNC(=O)Nc4ccccc4)C[C@@H]2N(C)CC3)cc1OC (stereo in doubt) [Compound 198, 1-[[(3aR)-3a-(3,4-dimethoxyphenyl)-1-methyl-2,3,4,5,7,7a-hexahydroindol-6-ylidene]amino]-3-phenyl-urea] | 0.2% | 0.21% | 0.22% | 0.55% | 0.89% | 0.8% | 0.86% | 1% | 1% | 1% | 1% | 1% | –
5 | COc1ccc([C@@]23CCC(=NOCCON=C4CC[C@@]5(c6ccc(OC)c(OC)c6)CCN(C)[C@H]5C4)C[C@@H]2N(C)CC3)cc1OC [Compound 210, (3aS,7aS)-N-[2-[[(3aS,7aS)-3a-(3,4-dimethoxyphenyl)-1-methyl-2,3,4,5,7,7a-hexahydroindol-6-ylidene]amino]oxyethoxy]-3a-(3,4-dimethoxyphenyl)-1-methyl-2,3,4,5,7,7a-hexahydroindol-6-imine] | 0% | 0% | 0% | 0% | 0% | 0% | 0% | 0% | 3.48% | 7.51% | 14.75% | 15.35% | –
6 | COc1ccc([C@@]23CCC(=NOC4CCCCO4)C[C@@H]2N(C)CC3)cc1OC (stereo partly drawn) [Compound 206, (3aS,7aS)-3a-(3,4-dimethoxyphenyl)-1-methyl-N-tetrahydropyran-2-yloxy-2,3,4,5,7,7a-hexahydroindol-6-imine] | 0% | 0% | 0% | 0% | 0% | 0% | 0% | 0% | – | – | – | – | Condition 1 Conversion (%), first value of pair x/y ([4]; time 30 min): 1.41%; Condition 1 Conversion (%), second value of pair x/y ([4]; time 30 min): 0%; Condition 1 Conversion (%), first value of pair x/y ([4]; time 1 h): 7.83%; Condition 1 Conversion (%), second value of pair x/y ([4]; time 1 h): 2.57%; Condition 1 Conversion (%), first value of pair x/y ([4]; time 4 h): 0%; Condition 1 Conversion (%), second value of pair x/y ([4]; time 4 h): 77.75%; Condition 1 Conversion (%), first value of pair x/y ([4]; time 24 h): 0%; Condition 1 Conversion (%), second value of pair x/y ([4]; time 24 h): 100%
7 | COc1ccc([C@@]23CCC(=NNc4ccc(C(=O)O)cc4)C[C@@H]2N(C)CC3)cc1OC [Compound 363, 4-[2-[(3aS,7aS)-3a-(3,4-dimethoxyphenyl)-1-methyl-2,3,4,5,7,7a-hexahydroindol-6-ylidene]hydrazino]benzoic acid] | 0% | 0% | 0% | 0% | 0% | 8.1% | 0% | 0% | 0% | 2.1% | 27.1% | 46.7% | –
